Structures can show the parent of a compound that is named as a salt.
Assays:
[1] = Nail plate penetration; type: in vitro ADME
[2] = Solubility (water and formulation solvents); type: physicochemical; conditions: water
[3] = test system: E. coli; experiment: Resistance of E. coli mutants selected against the compound (MIC); type: cell-based; conditions: E. coli mutants showing resistance to compound vs wildtype
Description: In an exemplary assay, activity of a representative compound against the editing domain was confirmed. To identify the target of the novel boron-containing antibacterial compound (A1), mutants in E. coli showing resistance to compound (A1) were isolated. […] The leuS gene from the mutants was cloned onto a plasmid and their resistance was confirmed by MIC. The editing domain from these mutants were sequenced and the mutations were all located in the editing domain of this enzyme.
All MIC testing of bacteria followed the Clinical and Laboratory Standards Institute (CLSI) guidelines for antimicrobial testing of aerobic bacteria (Methods for Dilution Antimicrobial Susceptibility Tests for Bacteria That Grow Aerobically; Approved Standard—Seventh Edition) (M07-A7) and anaerobic bacteria (Methods for Antimicrobial Susceptibility Testing of Anaerobic Bacteria; Approved Standard—Seventh Edition) (M11-A7).
Compare the minimal inhibitory concentration (MIC) of a tolC Escherichia coli strain bearing a pUC derived plasmid with and without an leuS gene insert.
If the MIC of the strain bearing the extra copies of leuS is greater than 2-fold more than the control strain then pour LB agar plates with four times the concentration of the MIC of the compound.
Plate 1×10^10 E. coli on ten plates containing 4×MIC of the compound. […]

SMILES	penetration of the nail plate [1]	solubility [2] [µg/mL]	further results
Cc1cc(C2CCCCC2)n(O)c(=O)c1 [ciclopirox, reference compound]	penetrates the nail plate poorly		
OB1OCc2cc(F)ccc21 [compound 1]		> 100	
OB1OCc2cc(Cl)ccc21 [compound 2]		> 100	
NCC1OB(O)c2ccccc21 (centres unmarked) [A1, 3-Aminomethyl-3H-benzo[c][1,2]oxaborol-1-ol) hydrochloride]			fold increase in resistance of E. coli mutants over wildtype [3]: 32-256 fold
Fc1ccc2c(c1)COB2c1ccccc1 [Compound 3]	penetrates the nail plate poorly		
